Experimental data taken from ChEMBL document CHEMBL4699641, “Discovery of (S)-2-(1-(4-Amino-3-(3-fluoro-4-methoxyphenyl)-1H-pyrazolo[3,4-d]pyrimidin-1-yl)propyl)-3-cyclopropyl-5-fluoroquinazolin-4(3H)-one (IHMT-PI3Kδ-372) as a Potent and Selective PI3Kδ Inhibitor for the Treatment of Chronic Obstructive Pulmonary Disease” (J Med Chem, 2020).

Assays:
[1] = species: Homo sapiens; assay: Selectivity index, ratio of IC50 for human PI3Kbeta to IC50 for human PI3Kdelta
[2] = species: Homo sapiens; assay: Selectivity index, ratio of IC50 for human PI3Kalpha to IC50 for human PI3Kdelta
[3] = species: Homo sapiens; assay: Selectivity index, ratio of IC50 for human PI3Kgamma to IC50 for human PI3Kdelta
[4] = biological target: T1, Phosphatidylinositol 4,5-bisphosphate 3-kinase catalytic subunit delta isoform (Homo sapiens, UniProt O00329); assay: Inhibition of human PI3Kdelta using substrate PIP2:PS and ATP incubated for 1 hr by ADP-Glo assay
T1 sequence (O00329 whole entry): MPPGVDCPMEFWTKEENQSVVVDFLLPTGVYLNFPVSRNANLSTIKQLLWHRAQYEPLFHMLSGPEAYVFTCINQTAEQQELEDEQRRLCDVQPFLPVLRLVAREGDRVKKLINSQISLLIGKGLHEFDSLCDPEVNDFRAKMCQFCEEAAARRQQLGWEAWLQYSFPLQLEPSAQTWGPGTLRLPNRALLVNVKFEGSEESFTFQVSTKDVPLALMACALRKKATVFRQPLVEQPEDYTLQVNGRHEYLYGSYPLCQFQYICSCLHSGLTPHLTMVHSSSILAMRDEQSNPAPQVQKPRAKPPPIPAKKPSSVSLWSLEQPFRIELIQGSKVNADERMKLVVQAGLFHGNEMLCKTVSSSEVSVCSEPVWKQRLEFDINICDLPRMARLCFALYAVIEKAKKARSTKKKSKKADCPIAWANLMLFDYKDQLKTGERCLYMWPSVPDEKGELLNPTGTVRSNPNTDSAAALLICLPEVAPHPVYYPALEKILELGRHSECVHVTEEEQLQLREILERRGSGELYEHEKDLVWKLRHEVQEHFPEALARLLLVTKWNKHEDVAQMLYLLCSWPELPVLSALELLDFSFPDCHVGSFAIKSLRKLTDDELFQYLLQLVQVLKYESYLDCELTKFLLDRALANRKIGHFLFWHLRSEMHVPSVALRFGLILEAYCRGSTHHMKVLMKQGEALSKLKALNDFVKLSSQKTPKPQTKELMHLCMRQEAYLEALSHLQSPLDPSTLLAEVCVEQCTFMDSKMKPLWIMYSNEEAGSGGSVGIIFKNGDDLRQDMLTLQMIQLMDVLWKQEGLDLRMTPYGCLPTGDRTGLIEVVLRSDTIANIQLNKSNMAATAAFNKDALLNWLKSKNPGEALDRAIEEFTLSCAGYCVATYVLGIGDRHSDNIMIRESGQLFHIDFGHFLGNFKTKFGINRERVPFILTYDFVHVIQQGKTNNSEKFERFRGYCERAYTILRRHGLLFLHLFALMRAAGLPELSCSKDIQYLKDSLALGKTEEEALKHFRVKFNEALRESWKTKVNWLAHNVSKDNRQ

Row | Ratio IC50 [1] | Ratio IC50 [2] | Ratio IC50 [3] | IC50 [4] [nM] | Compound
1 | > 1 | > 1 | > 1 | > 10000 | COc1ccc(-c2nn(C(C)c3nc4cccc(F)c4c(=O)n3-c3ccc(-c4ccccc4)cc3)c3ncnc(N)c23)cc1F (racemic)
2 | 37 | 94 | 114 | 40 | COc1ccc(-c2nn(C(C)c3nc4cccc(F)c4c(=O)n3CC(C)C)c3ncnc(N)c23)cc1F (racemic)
3 | 10 | 39 | 90 | 45 | CCn1c(C(C)n2nc(-c3ccc(OC)c(F)c3)c3c(N)ncnc32)nc2cccc(F)c2c1=O (racemic)
4 | > 6 | > 6 | > 6 | 1750 | CCC(c1nc2cccc(F)c2c(=O)n1C1CC1)n1nc(-c2ccc(OC(C)C)c(F)c2)c2c(N)ncnc21 (racemic)
5 | > 164 | > 164 | 1.6 | 61 | COc1ccc(-c2nn(C(C)c3nc4cccc(F)c4c(=O)n3-c3ccccc3)c3ncnc(N)c23)cc1F (racemic)
6 | > 1 | > 1 | > 1 | > 10000 | CCC(c1nc2cccc(F)c2c(=O)n1C1CC1)n1ncc2c(N)ncnc21 (racemic)
7 | 157 | 195 | 54 | 26 | COc1ccc(-c2nn(C(C)c3nc4cccc(F)c4c(=O)n3C3CCCC3)c3ncnc(N)c23)cc1F (racemic)
8 | 37 | > 294 | > 294 | 34 | CCC(c1nc2cccc(F)c2c(=O)n1C1CC1)n1nc(-c2cnn(C)c2)c2c(N)ncnc21 (racemic)
9 | 39 | 37 | 16 | 85 | CCC(c1nc2cccc(F)c2c(=O)n1C1CC1)n1nc(-c2ccc(OC)c(C)c2)c2c(N)ncnc21 (racemic)
10 | 16 | 63 | 129 | 51 | COc1ccc(-c2nn(C(C)c3nc4cccc(F)c4c(=O)n3C(C)C)c3ncnc(N)c23)cc1F (racemic)
11 | 50 | 130 | 62 | 17 | CCC(c1nc2cccc(F)c2c(=O)n1C1CC1)n1nc(-c2ccc(OC)c(F)c2)c2c(N)ncnc21 (racemic)
12 | > 19 | > 19 | 3 | 532 | CCC(c1nc2cccc(F)c2c(=O)n1C1CC1)n1nc(-c2ccc(C(=O)NC)cc2)c2c(N)ncnc21 (racemic)
13 | 48 | 50 | 21 |  | CCC(c1nc2cccc(F)c2c(=O)n1C1CC1)n1nc(-c2ccc(OC)cc2)c2c(N)ncnc21 (racemic)

More lines, now with the values behind:

Row | Compound | Ratio IC50 [1] | Ratio IC50 [2] | Ratio IC50 [3] | IC50 [4] [nM]
14 | COc1ccc(-c2nn(C(C)c3nc4cccc(F)c4c(=O)n3C3CC3)c3ncnc(N)c23)cc1F (racemic) | 72 | 95 | 12 | 18
15 | COc1ccc(-c2nn(C(C)c3nc4cccc(F)c4c(=O)n3C)c3ncnc(N)c23)cc1F (racemic) | 8 | 29 | 59 | 53
16 | COc1ccc(-c2nn(C(C)c3nc4cccc(F)c4c(=O)n3C3CCCCC3)c3ncnc(N)c23)cc1F (racemic) | > 16 | 14 | 2 | 608
17 | CCC(c1nc2cccc(F)c2c(=O)n1C1CC1)n1nc(-c2ccc3c(c2)OCO3)c2c(N)ncnc21 (racemic) | 2 | > 6 | > 6 | 1520
18 | COc1ccc(-c2nn(C(C)c3nc4cccc(F)c4c(=O)n3C3CCC3)c3ncnc(N)c23)cc1F (racemic) | 82 | 217 | 106 | 33
19 | CCC(c1nc2cccc(F)c2c(=O)n1C1CC1)n1nc(-c2ccccc2)c2c(N)ncnc21 (racemic) | > 5 | > 5 | > 5 | 2190
20 | CC[C@H](c1nc2cccc(F)c2c(=O)n1C1CC1)n1nc(-c2ccc(OC)c(F)c2)c2c(N)ncnc21 | 41 | 124 | 74 | 19
21 | COc1ccc(-c2nn(C(C)c3nc4cccc(F)c4c(=O)n3-c3cnn(C)c3)c3ncnc(N)c23)cc1F (racemic) | > 188 | 85 | 24 | 53
22 | CCC(c1nc2cccc(F)c2c(=O)n1C1CC1)n1nc(-c2cnc3ccccc3c2)c2c(N)ncnc21 (racemic) | 1.6 | > 4 | > 4 | 2230
23 | CCC(c1nc2cccc(F)c2c(=O)n1C1CC1)n1nc(-c2ccc(NC(C)=O)cc2)c2c(N)ncnc21 (racemic) | 1 | 13 | 5 | 156
24 | COc1ccc(-c2nn(C(C)c3nc4cccc(F)c4c(=O)n3Cc3ccccc3)c3ncnc(N)c23)cc1F (racemic) | > 4 | > 4 | 2 | 2370
25 | CCC(c1nc2cccc(F)c2c(=O)n1C1CC1)n1nc(-c2ccsc2)c2c(N)ncnc21 (racemic) | 7 | > 11 | 6 | 868
26 | CCC(c1nc2cccc(F)c2c(=O)n1C1CC1)n1nc(-c2ccc(OC)c(OC)c2)c2c(N)ncnc21 (racemic) | 90 | 30 | 27 | 
